Measured values from article PMC6891772 (Marine Drugs, 2019).

Molecular target: T1, arylamine-N-acetyltransferase (TBNAT) (Mycobacterium tuberculosis, UniProt P9WJI5)
T1 construct: gene nat
T1 sequence (P9WJI5 1-283): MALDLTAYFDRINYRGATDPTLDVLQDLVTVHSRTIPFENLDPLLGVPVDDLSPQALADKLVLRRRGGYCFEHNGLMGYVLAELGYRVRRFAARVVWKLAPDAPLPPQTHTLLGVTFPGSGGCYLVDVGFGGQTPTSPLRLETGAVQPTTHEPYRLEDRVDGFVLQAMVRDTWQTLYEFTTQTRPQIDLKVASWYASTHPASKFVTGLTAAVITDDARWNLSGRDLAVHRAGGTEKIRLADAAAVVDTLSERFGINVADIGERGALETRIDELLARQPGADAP
Experiment: biochemical

Compound | IC50 [µM]
CC(=O)O[C@H]1CC(C)(C)C(=C=C/C(C)=C/C=C/C(C)=C/C=C/C=C(C)/C=C/C=C(\C)C(=O)C[C@@]23O[C@]2(C)C[C@@H](O)CC3(C)C)[C@](C)(O)C1 [fucoxanthin] | 4.8 ± 0.4
NNC(=O)c1ccncc1 [isoniazid] | 5.9 ± 0.2
